{
  "source": "ChEMBL document CHEMBL4334471",
  "about": "“Discovery of 1,8-disubstituted-[1,2,3]triazolo[4,5-c]quinoline derivatives as a new class of Hippo signaling pathway inhibitors” (Bioorg Med Chem Lett, 2019)",
  "key": {"[1]": {"molecular_target": "Serine/threonine-protein kinase NIM1 (Homo sapiens) (UniProt Q8IY84)", "experiment": "Inhibition of recombinant full length human NIM1 assessed as residual activity at 10 uM using KKKVSRSGLYRSPSMPENLNRPR as substrate measured after 40 mins in presence of [gamma33P]ATP by scintillation counting based radiometry assay relative to control"}, "[2]": {"molecular_target": "[Pyruvate dehydrogenase (acetyl-transferring)] kinase isozyme 2, mitochondrial (Homo sapiens) (UniProt Q15119)", "experiment": "Inhibition of human PDHK2 assessed as residual activity at 10 uM by scintillation counting based radiometry assay relative to control"}, "[3]": {"species": "Mus musculus", "experiment": "Inhibition of mouse MAPK2 assessed as residual activity at 10 uM relative to control"}, "[4]": {"molecular_target": "cGMP-dependent protein kinase 1 (Homo sapiens) (UniProt Q13976)", "sequence (Q13976 whole entry)": "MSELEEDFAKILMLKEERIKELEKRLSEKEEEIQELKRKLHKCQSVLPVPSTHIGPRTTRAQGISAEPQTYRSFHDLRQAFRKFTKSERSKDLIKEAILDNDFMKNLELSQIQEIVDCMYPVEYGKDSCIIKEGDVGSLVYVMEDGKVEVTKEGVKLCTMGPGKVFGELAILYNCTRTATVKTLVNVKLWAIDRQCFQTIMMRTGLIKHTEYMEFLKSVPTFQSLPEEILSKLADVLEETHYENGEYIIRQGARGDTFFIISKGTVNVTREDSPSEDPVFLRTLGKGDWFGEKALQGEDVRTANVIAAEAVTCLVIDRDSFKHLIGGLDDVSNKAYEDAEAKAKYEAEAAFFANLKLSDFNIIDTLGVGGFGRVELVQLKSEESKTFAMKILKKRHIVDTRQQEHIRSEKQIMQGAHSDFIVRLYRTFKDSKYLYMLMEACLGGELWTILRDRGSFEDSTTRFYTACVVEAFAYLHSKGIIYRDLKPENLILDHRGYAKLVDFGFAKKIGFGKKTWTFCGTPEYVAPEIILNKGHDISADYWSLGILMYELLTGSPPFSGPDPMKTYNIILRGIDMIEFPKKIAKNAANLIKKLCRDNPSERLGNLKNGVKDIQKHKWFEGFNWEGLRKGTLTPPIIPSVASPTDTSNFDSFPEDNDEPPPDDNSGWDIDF", "experiment": "Inhibition of recombinant full-length human PKG1alpha assessed as residual activity at 10 uM using RRRLSFAEPG as substrate incubated for 40 mins in presence of [gamma33P]ATP by scintillation counting based radiometry assay relative to control"}, "[5]": {"system": "Tyrosine-protein kinase ABL1 (Homo sapiens), P00519 [H396P]", "experiment": "Inhibition of human ABL1 H396P mutant (27 to end residues) assessed as residual activity at 10 uM using EAIYAAPFAKKK as substrate incubated for 40 mins in presence of [gamma-33ATP] by scintillation counting based radiometry assay relative to control"}, "[6]": {"species": "Mus musculus", "experiment": "Inhibition of recombinant full length mouse PI3K p110/p85 E545K mutant assessed as residual activity at 10 uM using phosphatidylinositol-4, 5-bisphosphate as substrate incubated for 40 mins in presence of [gamma33P]ATP by scintillation counting based radiometry assay relative to control"}, "[7]": {"molecular_target": "Tyrosine-protein kinase Blk (Mus musculus) (UniProt P16277)", "experiment": "Inhibition of recombinant full length mouse BLK assessed as residual activity at 10 uM using poly(Glu, Tyr) 4:1 as substrate incubated for 40 mins in presence of [gamma-33ATP] by scintillation counting based radiometry assay relative to control"}, "[8]": {"molecular_target": "Macrophage colony-stimulating factor 1 receptor (Homo sapiens) (UniProt P07333)", "experiment": "Inhibition of recombinant human FMS (538 to end residues) assessed as residual activity at 10 uM using KKKSPGEYVNIEF as substrate at 40 mins in presence of [gamma-33ATP] by scintillation counting based radiometry assay relative to control"}, "[9]": {"system": "Tyrosine-protein kinase BTK (Homo sapiens), Q06187 [R28H]", "experiment": "Inhibition of recombinant full length human BTK R28H mutant assessed as residual activity at 10 uM using LSNLYHQGKFLQTFCGSPLYRRR substrate incubated for 40 mins in presence of [gamma-33ATP] by scintillation counting based radiometry assay relative to control"}, "[10]": {"molecular_target": "G protein-coupled receptor kinase 5 (Homo sapiens) (UniProt P34947)", "sequence (P34947 whole entry, looked up)": "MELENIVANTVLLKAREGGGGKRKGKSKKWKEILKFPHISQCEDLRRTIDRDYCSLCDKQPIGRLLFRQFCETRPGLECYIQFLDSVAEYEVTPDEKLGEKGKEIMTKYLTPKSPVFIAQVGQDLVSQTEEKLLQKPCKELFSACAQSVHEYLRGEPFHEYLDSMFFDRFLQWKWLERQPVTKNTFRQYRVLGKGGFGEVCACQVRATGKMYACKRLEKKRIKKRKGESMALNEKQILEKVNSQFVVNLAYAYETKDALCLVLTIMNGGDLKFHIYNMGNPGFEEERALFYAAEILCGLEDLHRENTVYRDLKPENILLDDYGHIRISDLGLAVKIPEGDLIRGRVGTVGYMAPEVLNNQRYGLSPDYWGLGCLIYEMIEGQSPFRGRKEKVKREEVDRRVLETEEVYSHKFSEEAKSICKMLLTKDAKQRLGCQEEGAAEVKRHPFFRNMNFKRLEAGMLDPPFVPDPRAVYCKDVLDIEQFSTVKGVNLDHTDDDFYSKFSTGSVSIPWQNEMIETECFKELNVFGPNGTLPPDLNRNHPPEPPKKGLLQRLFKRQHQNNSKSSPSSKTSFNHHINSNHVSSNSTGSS", "experiment": "Inhibition of recombinant full length human GRK5 assessed as residual activity at 10 uM using casein as substrate at 40 mins in presence of [gamma-33ATP] by scintillation counting based radiometry assay relative to control"}, "[11]": {"molecular_target": "Death-associated protein kinase 3 (Homo sapiens) (UniProt O43293)", "experiment": "Inhibition of recombinant human ZIPK (1 to 290 residues) assessed as residual activity at 10 uM using KKLNRTLSFAEPG substrate incubated for 40 mins in presence of [gamma33P]ATP by scintillation counting based radiometry assay relative to control"}, "[12]": {"molecular_target": "Inhibitor of nuclear factor kappa-B kinase subunit epsilon (Homo sapiens) (UniProt Q14164)", "sequence (Q14164 whole entry)": "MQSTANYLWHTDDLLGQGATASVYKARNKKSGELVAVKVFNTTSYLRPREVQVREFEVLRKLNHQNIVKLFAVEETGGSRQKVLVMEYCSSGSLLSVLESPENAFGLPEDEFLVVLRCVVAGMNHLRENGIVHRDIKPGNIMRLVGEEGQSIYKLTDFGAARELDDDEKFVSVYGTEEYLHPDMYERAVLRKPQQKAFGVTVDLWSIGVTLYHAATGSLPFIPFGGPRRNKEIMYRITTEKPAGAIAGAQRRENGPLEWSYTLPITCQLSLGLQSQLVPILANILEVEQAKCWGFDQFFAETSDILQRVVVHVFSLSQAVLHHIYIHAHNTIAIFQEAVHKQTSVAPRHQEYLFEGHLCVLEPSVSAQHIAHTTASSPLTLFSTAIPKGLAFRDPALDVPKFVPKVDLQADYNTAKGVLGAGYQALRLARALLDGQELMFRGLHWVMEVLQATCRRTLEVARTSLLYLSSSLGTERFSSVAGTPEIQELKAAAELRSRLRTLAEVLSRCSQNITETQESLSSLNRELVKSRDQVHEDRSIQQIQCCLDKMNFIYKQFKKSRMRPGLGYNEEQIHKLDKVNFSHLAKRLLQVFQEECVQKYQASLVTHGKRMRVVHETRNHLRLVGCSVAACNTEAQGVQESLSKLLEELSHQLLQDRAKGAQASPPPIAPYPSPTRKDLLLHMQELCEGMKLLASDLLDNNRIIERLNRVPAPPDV", "experiment": "Inhibition of full length human IKKepsilon assessed as residual activity at 10 uM using peptide as substrate after 40 mins by [gamma-33ATP] radiometric assay relative to control"}, "[13]": {"molecular_target": "Protein kinase C delta type (Homo sapiens) (UniProt Q05655)", "sequence (Q05655 whole entry, looked up)": "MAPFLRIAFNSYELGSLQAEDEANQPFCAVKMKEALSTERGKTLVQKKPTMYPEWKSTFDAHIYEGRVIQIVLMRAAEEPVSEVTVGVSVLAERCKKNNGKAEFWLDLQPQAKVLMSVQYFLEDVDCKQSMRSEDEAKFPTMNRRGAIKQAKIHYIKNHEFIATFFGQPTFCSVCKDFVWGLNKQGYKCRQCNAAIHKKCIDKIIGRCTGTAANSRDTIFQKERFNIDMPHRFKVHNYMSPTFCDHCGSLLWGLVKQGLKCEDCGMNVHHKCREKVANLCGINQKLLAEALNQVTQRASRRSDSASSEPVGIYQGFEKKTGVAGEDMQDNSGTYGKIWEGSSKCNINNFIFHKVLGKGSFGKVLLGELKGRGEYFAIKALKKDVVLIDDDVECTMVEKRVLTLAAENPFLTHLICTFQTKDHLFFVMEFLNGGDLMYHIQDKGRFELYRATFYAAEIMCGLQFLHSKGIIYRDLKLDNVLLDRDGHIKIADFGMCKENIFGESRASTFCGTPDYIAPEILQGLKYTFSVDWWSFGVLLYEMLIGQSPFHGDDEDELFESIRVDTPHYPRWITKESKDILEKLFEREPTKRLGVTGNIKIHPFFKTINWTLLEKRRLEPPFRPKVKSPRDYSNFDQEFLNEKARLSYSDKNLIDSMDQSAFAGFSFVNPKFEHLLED", "experiment": "Inhibition of recombinant human PKCdelta (2 to end residues) assessed as residual activity at 10 uM using ERMRPRKRQGSVRR as substrate incubated for 40 mins in presence of [gamma33P]ATP by scintillation counting based radiometry assay relative to control"}, "[14]": {"molecular_target": "Protein kinase C beta type (Homo sapiens) (UniProt P05771)", "experiment": "Inhibition of recombinant human PKCbeta2 (2 to end residues) assessed as residual activity at 10 uM using histone H1 as substrate incubated for 40 mins in presence of [gamma33P]ATP by scintillation counting based radiometry assay relative to control"}, "[15]": {"molecular_target": "Serine/threonine-protein kinase PRP4 homolog (Homo sapiens) (UniProt Q13523)", "sequence (Q13523 whole entry)": "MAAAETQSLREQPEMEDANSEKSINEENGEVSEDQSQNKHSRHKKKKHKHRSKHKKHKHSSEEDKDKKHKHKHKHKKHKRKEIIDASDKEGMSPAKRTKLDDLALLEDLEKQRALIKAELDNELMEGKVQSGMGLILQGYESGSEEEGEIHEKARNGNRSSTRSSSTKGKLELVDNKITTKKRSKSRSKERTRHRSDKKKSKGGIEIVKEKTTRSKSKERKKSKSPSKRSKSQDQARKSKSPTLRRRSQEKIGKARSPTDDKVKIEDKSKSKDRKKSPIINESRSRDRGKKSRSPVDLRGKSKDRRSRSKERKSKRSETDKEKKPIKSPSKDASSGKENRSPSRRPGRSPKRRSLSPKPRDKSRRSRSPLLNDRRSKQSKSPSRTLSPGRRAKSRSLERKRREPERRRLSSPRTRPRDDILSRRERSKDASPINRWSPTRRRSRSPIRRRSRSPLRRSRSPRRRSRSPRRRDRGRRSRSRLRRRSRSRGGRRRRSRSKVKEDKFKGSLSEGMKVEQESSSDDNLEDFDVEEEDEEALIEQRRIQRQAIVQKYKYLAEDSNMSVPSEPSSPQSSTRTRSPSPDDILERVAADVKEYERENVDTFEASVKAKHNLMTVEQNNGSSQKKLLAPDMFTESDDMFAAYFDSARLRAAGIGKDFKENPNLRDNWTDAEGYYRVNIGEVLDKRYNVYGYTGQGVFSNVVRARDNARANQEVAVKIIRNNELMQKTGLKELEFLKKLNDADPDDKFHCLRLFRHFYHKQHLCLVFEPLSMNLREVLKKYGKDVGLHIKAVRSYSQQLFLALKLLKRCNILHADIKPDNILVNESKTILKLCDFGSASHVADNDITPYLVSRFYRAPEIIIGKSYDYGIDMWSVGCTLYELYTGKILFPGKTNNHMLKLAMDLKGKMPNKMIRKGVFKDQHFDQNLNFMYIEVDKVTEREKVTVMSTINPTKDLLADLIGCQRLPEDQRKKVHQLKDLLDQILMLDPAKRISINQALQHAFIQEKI", "experiment": "Inhibition of recombinant human PRP4 (663 to end residues) assessed as residual activity at 10 uM using casein as substrate incubated for 40 mins in presence of [gamma33P]ATP by scintillation counting based radiometry assay relative to control"}, "[16]": {"molecular_target": "Ephrin type-B receptor 3 (Homo sapiens) (UniProt P54753)", "experiment": "Inhibition of recombinant human EphB3 (599 to 920 residues) assessed as residual activity at 10 uM using poly(Glu, Tyr) 4:1 as substrate at 40 mins in presence of [gamma-33ATP] by scintillation counting based radiometry assay relative to control"}, "[17]": {"molecular_target": "Serine/threonine-protein kinase mTOR (Homo sapiens) (UniProt P42345)", "experiment": "Inhibition of recombinant full length human mTOR assessed as residual activity at 10 uM measured after 40 mins in presence of [gamma33P]ATP by scintillation counting based radiometry assay relative to control"}, "[18]": {"molecular_target": "Tyrosine-protein kinase TXK (Homo sapiens) (UniProt P42681)", "experiment": "Inhibition of recombinant human Txk (256 to end residues) assessed as residual activity at 10 uM using GEEPLYWSFPAKKK as substrate incubated for 40 mins in presence of [gamma33P]ATP by scintillation counting based radiometry assay relative to control"}, "[19]": {"molecular_target": "Casein kinase I isoform epsilon (Homo sapiens) (UniProt P49674)", "sequence (P49674 whole entry, looked up, canonical isoform)": "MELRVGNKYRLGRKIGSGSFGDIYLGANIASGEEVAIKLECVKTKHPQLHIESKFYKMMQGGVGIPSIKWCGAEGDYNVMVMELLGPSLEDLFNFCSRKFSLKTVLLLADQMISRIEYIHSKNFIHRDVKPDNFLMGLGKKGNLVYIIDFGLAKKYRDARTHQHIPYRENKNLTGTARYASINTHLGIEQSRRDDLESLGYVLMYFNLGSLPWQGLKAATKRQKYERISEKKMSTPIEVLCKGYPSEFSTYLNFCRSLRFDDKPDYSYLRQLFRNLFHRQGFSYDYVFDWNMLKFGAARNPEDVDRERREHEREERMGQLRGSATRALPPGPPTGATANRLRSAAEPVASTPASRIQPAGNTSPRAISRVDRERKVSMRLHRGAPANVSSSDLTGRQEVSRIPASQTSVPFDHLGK", "experiment": "Inhibition of recombinant human CK1epsilon assessed as residual activity at 10 uM using KRRRALS(p)VASLPGL as substrate incubated for 120 mins in presence of [gamma-33ATP] by scintillation counting based radiometry assay relative to control"}, "[20]": {"system": "eIF-2-alpha kinase GCN2 (Homo sapiens), Q9P2K8 [E556G]", "experiment": "Inhibition of recombinant full length human GCN2 E556G mutant assessed as residual activity at 10 uM using RSRSRSRSRSRSR as substrate at 40 mins in presence of [gamma-33ATP] by scintillation counting based radiometry assay relative to control"}, "[21]": {"molecular_target": "Phosphatidylinositol 4-phosphate 5-kinase type-1 alpha (Homo sapiens) (UniProt Q99755)", "sequence (Q99755 whole entry)": "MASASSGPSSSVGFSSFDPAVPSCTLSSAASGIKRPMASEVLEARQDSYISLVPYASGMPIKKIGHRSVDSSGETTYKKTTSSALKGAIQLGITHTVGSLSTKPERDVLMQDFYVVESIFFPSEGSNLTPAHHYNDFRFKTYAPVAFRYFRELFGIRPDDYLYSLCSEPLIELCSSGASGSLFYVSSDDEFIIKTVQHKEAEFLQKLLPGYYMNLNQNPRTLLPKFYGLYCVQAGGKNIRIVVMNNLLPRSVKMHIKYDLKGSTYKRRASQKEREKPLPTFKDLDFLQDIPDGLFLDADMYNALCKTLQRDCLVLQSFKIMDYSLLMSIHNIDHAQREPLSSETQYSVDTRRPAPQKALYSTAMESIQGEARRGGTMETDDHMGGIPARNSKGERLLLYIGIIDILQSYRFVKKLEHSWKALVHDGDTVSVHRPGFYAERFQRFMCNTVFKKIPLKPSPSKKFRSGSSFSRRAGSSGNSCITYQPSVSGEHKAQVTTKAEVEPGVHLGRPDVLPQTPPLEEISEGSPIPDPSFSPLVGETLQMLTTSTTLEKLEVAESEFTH", "experiment": "Inhibition of recombinant full-length human PIP5K1alpha assessed as residual activity at 10 uM using phosphatidylinositol 5-phosphate as substrate by HTRF assay relative to control"}, "[22]": {"molecular_target": "Tyrosine-protein kinase ITK/TSK (Homo sapiens) (UniProt Q08881)", "experiment": "Inhibition of human Itk (352 to 617 residues) assessed as residual activity at 10 uM using myelin basic protein as substrate after 40 mins by [gamma-33ATP] radiometric assay relative to control"}},
  "data": [
    {"smiles": "C[C@@H](c1ccccc1)n1nnc2cnc3ccc(-c4cnc5[nH]ccc5c4)cc3c21", "values": [
      {"measurement": "Activity", "setting": "[1]", "value": 99, "unit": "%"},
      {"measurement": "Activity", "setting": "[2]", "value": 86, "unit": "%"},
      {"measurement": "Activity", "setting": "[3]", "value": 100, "unit": "%"},
      {"measurement": "Activity", "setting": "[4]", "value": 70, "unit": "%"},
      {"measurement": "Activity", "setting": "[5]", "value": -1, "unit": "%"},
      {"measurement": "Activity", "setting": "[6]", "value": 1, "unit": "%"},
      {"measurement": "Activity", "setting": "[7]", "value": 12, "unit": "%"},
      {"measurement": "Activity", "setting": "[8]", "value": 21, "unit": "%"},
      {"measurement": "Activity", "setting": "[9]", "value": 116, "unit": "%"},
      {"measurement": "Activity", "setting": "[10]", "value": 91, "unit": "%"},
      {"measurement": "Activity", "setting": "[11]", "value": 69, "unit": "%"},
      {"measurement": "Activity", "setting": "[12]", "value": 94, "unit": "%"},
      {"measurement": "Activity", "setting": "[13]", "value": 91, "unit": "%"},
      {"measurement": "Activity", "setting": "[14]", "value": 93, "unit": "%"},
      {"measurement": "Activity", "setting": "[15]", "value": 86, "unit": "%"},
      {"measurement": "Activity", "setting": "[16]", "value": 123, "unit": "%"},
      {"measurement": "Activity", "setting": "[17]", "value": -7, "unit": "%"},
      {"measurement": "Activity", "setting": "[18]", "value": 23, "unit": "%"},
      {"measurement": "Activity", "setting": "[19]", "value": 32, "unit": "%"},
      {"measurement": "Activity", "setting": "[20]", "value": 93, "unit": "%"},
      {"measurement": "Activity", "setting": "[21]", "value": "73 to 83", "unit": "%"},
      {"measurement": "Activity", "setting": "[22]", "value": 64, "unit": "%"}
    ]}
  ]
}
